{
  "source": "patent EP0447812B1",
  "about": "“Use of a dihydropyridine to improve the inner ear blood circulation” (FUJISAWA PHARMACEUTICAL CO., LTD., priority 1990, dated 1991)",
  "key": {"Rats": {"system": "Rats", "test": "Test 2: Rose Bengal/green light photoillumination of the oval window, nystagmus test and swimming test for imbalance 24 hours later", "assay_type": "in vivo", "conditions": "0.03 mg/kg intravenously at the beginning of photoillumination, 12 animals, dosage 0: 100 %", "procedure": "Rats were anesthetized with pentobarbital, and with the body temperature maintained at 37°C with a heating pad, an aqueous solution of Rose Bengal was continuously infused into the femoral vein. The […] was then opened and the tympanic membrane, incus and malleus were removed taking care not to impair the inner ear.\nUsing a Hamamatsu Photonic xenon lamp, the oval window was irradiated with a green light of 540 nm via an optical fiber. Using a manipulator, the end of the fiber was fixed about 3 mm from the lateral wall of the cochlea.\nPhotoillumination was started 20 minutes after the beginning of Rose Bengal infusion and a solution of the test compound in polyethylene glycol (400)-water (1:1, v/v) was intravenously administered at the beginning of photoillumination. After 40 minutes of irradiation, both the photoillumination and Rose Bengal infusion were terminated, the wound was sutured, and the animal was allowed to regain consciousness. At 24 hours after termination of photoillumination, a nystagmus test and a swimming test for imbalance were performed."}, "Male Wistar rats": {"system": "Male Wistar rats", "test": "Test 1: Rose Bengal/green light photo-illumination of the cochlear lateral wall, compound action potential (CAP) recorded by electrocochleography", "assay_type": "in vivo", "conditions": "0.3 mg/kg injected intravenously 10 minutes prior to photo-illumination; 6 animals; vehicle only 12.0 min.", "procedure": "Male Wistar rats (body weights 240 - 260 g) were anesthetized with pentobarbital. After tracheotomy, the animals were artificially ventilated with a Harvard 683 respirator. A solution of Rose Bengal (RB) in saline (10 mg/ml) was infused into the femoral vein at a speed of 24 µmoles/kg per hour. After initiation of Rose Bengal infusion, the left middle ear was opened and, for electrocochleography, the round window lead electrode was fixed in position. Thus, after incision of the skin and muscle of the neck region, the tympanic cavity was drilled with a miniature drill and a silver ball electrode was placed on the round window membrane for use as an active electrode. An indifferent electrode was placed in the middle of the back of the head. Thirty minutes after initiation of Rose Bengal infusion, the lateral wall of the cochlea was irradiated with a green light (540 nm) conducted from a light source (L-3306-01A, Hamamatsu Photonics) through an optical fiber. Using a manipulator, the free end of the optical fiber was fixed about 5 mm away from the lateral wall of the cochlea. In this arrangement, the compound action potential (CAP) was recorded at 1-minute intervals. The electrocochleogram was recorded with Nihon Kohden Neuropack II by averaging 128 clicks of 8 kHz at a sound pressure level of 100 dB. […]"}},
  "data": [
    {"smiles": "COC(=O)C1=C(C#N)NC(C)=C(C(=O)OC(C)C)C1c1cccc([N+](=O)[O-])c1", "note": "(stereo not drawn) [dihydropyridine compound A, Isopropyl 6-cyano-5-methoxycarbonyl-2-methyl-4-(3-nitrophenyl)-1,4-dihydropyridine-3-carboxylate]", "values": [
      {"measurement": "Incidence (%) imbalance", "setting": "Rats; swimming test 24 hours after termination of photoillumination", "value": 58.3, "unit": "%"},
      {"measurement": "Incidence (%) Nystagmus", "setting": "Rats; tested 24 hours after termination of photoillumination", "value": 58.3, "unit": "%"},
      {"measurement": "Action potential disappearance time", "setting": "Male Wistar rats", "value": 14.5, "unit": "min"}
    ]}
  ]
}
